From ChEMBL document CHEMBL1201861, “Genomics of Drug Sensitity in Cancer screening data, Wellcome Trust Sanger Institute”

How the values were obtained:
Assay in all cases: cells
Conditions in all cases: Homo sapiens
IST-MEL1 = assay type: functional, cell-based;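 further: growth inhibition of the cell line, read out with a cell viability assay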
Description: SANGER: Inhibition of human IST-MEL1 cell growth in a cell viability assay.

ES8 = assay type: functional, cell-based;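 further: growth inhibition of human ES8 cells, read out with a cell viability assay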
Description: SANGER: Inhibition of human ES8 cell growth in a cell viability assay.

SNU1 = assay type: functional, cell-based;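 further: growth inhibition of human NCI-SNU-1 cells, measured with a cell viability assay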
Description: SANGER: Inhibition of human NCI-SNU-1 cell growth in a cell viability assay.

HCC2218 = assay type: functional, cell-based;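 further: cell viability assay read-out, with IC50 given as the concentration that inhibits growth of the cell line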
Description: SANGER: Inhibition of human HCC2218 cell growth in a cell viability assay.

NCI-H2126 = assay type: functional, cell-based;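 further: growth inhibition of the cancer cell line, determined with a cell viability readout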
Description: SANGER: Inhibition of human NCI-H2126 cell growth in a cell viability assay.

ES3 = assay type: functional, cell-based;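 further: growth inhibition of ES3 cells, read out with a cell viability assay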
Description: SANGER: Inhibition of human ES3 cell growth in a cell viability assay.

NCI-H446 = assay type: functional, cell-based;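 further: growth inhibition of NCI-H446 cells determined by a cell viability assay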
Description: SANGER: Inhibition of human NCI-H446 cell growth in a cell viability assay.

KGN = assay type: functional, cell-based;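 further: growth inhibition of KGN cells, read out with a cell viability assay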
Description: SANGER: Inhibition of human KGN cell growth in a cell viability assay.

A3-KAW = assay type: functional, cell-based;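 further: growth inhibition of human A3-KAW cells, read out with a cell viability assay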
Description: SANGER: Inhibition of human A3-KAW cell growth in a cell viability assay.

NB13 = assay type: functional, cell-based;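 further: cell viability readout measuring growth inhibition of human NB13 cells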
Description: SANGER: Inhibition of human NB13 cell growth in a cell viability assay.

NCI-H1770 = assay type: functional, cell-based;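 further: growth inhibition of NCI-H1770 cells determined with a viability readout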
Description: SANGER: Inhibition of human NCI-H1770 cell growth in a cell viability assay.

Calu-6 = assay type: functional, cell-based;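 further: growth of human Calu-6 cells, read out by a cell viability assay, IC50 marking inhibition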
Description: SANGER: Inhibition of human Calu-6 cell growth in a cell viability assay.

C8166 = assay type: functional, cell-based;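 further: growth inhibition of human C8166 cells measured by a cell viability assay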
Description: SANGER: Inhibition of human C8166 cell growth in a cell viability assay.

RCC10RGB = assay type: functional, cell-based;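 further: growth inhibition of human RCC10RGB cells, read out by a cell viability assay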
Description: SANGER: Inhibition of human RCC10RGB cell growth in a cell viability assay.

EW-24 = assay type: functional, cell-based;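 further: human EW-24 cancer cell line, growth inhibition read out via a cell viability assay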
Description: SANGER: Inhibition of human EW-24 cell growth in a cell viability assay.

Becker = assay type: functional, cell-based;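 further: growth inhibition of Becker cells, read out with a cell viability assay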
Description: SANGER: Inhibition of human Becker cell growth in a cell viability assay.

DEL = assay type: functional, cell-based;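 further: growth inhibition of the human DEL cell line, read out with a cell viability assay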
Description: SANGER: Inhibition of human DEL cell growth in a cell viability assay.

MHH-PREB-1 = assay type: functional, cell-based;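 further: cell viability assay measuring inhibition of proliferation of human MHH-PREB-1 cells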
Description: SANGER: Inhibition of human MHH-PREB-1 cell growth in a cell viability assay.

NCI-H82 = assay type: functional, cell-based;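 further: growth inhibition of NCI-H82 cells, measured with a cell viability readout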
Description: SANGER: Inhibition of human NCI-H82 cell growth in a cell viability assay.

NCI-H747 = assay type: functional, cell-based;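 further: growth inhibition of human NCI-H747 cells, read out by a cell viability assay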
Description: SANGER: Inhibition of human NCI-H747 cell growth in a cell viability assay.

LAMA-84 = assay type: functional, cell-based;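 further: growth inhibition of LAMA-84 cells, read out with a cell viability assay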
Description: SANGER: Inhibition of human LAMA-84 cell growth in a cell viability assay.

JVM-3 = assay type: functional, cell-based;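 further: growth inhibition of human JVM-3 cells, read out with a cell viability assay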
Description: SANGER: Inhibition of human JVM-3 cell growth in a cell viability assay.

HC-1 = assay type: functional, cell-based;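 further: growth inhibition of HC-1 cells measured by a cell viability assay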
Description: SANGER: Inhibition of human HC-1 cell growth in a cell viability assay.

SBC-1 = assay type: functional, cell-based;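 further: cell viability assay measuring growth inhibition of the SBC-1 cell line, IC50 being the concentration that halves growth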
Description: SANGER: Inhibition of human SBC-1 cell growth in a cell viability assay.

NOS-1 = assay type: functional, cell-based;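 further: growth inhibition of the human NOS-1 cell line, read out with a cell viability assay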
Description: SANGER: Inhibition of human NOS-1 cell growth in a cell viability assay.

MC116 = assay type: functional, cell-based;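 further: growth inhibition of MC116 cells, read out with a cell viability assay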
Description: SANGER: Inhibition of human MC116 cell growth in a cell viability assay.

MZ7-mel = assay type: functional, cell-based;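 further: growth inhibition of human MZ7-mel cells, measured by a cell viability assay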
Description: SANGER: Inhibition of human MZ7-mel cell growth in a cell viability assay.

TE-11 = assay type: functional, cell-based;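 further: growth inhibition of human TE-11 cells, read out by a cell viability assay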
Description: SANGER: Inhibition of human TE-11 cell growth in a cell viability assay.

MV4-11 = assay type: functional, cell-based, MV-4-11;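 further: cell viability readout measuring growth inhibition of human MV-4-11 cells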
Description: SANGER: Inhibition of human MV-4-11 cell growth in a cell viability assay.

NCI-H23 = assay type: functional, cell-based;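 further: cell viability assay measuring growth inhibition of NCI-H23 cells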
Description: SANGER: Inhibition of human NCI-H23 cell growth in a cell viability assay.

HDLM-2 = assay type: functional, cell-based;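 further: cell viability assay measuring suppression of HDLM-2 proliferation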
Description: SANGER: Inhibition of human HDLM-2 cell growth in a cell viability assay.

EM-2 = assay type: functional, cell-based;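 further: growth inhibition of EM-2 cells, read out with a cell viability assay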
Description: SANGER: Inhibition of human EM-2 cell growth in a cell viability assay.

MLMA = assay type: functional, cell-based;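 further: growth inhibition of MLMA cells (human), determined through a cell viability readout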
Description: SANGER: Inhibition of human MLMA cell growth in a cell viability assay.

RPMI-8866 = assay type: functional, cell-based
Description: SANGER: Inhibition of human RPMI-8866 cell growth in a cell viability assay.

TK-10 = assay type: functional, cell-based;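 further: growth inhibition of TK-10 cells, read out in a cell viability assay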
Description: SANGER: Inhibition of human TK10 cell growth in a cell viability assay.

KP-N-YS = assay type: functional, cell-based;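 further: cell viability assay measuring inhibition of cell line growth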
Description: SANGER: Inhibition of human KP-N-YS cell growth in a cell viability assay.

ES7 = assay type: functional, cell-based;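 further: growth inhibition of cultured human ES7 cells, read out as cell viability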
Description: SANGER: Inhibition of human ES7 cell growth in a cell viability assay.

NB5 = assay type: functional, cell-based;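 further: growth inhibition of NB5 cells, read out as cell viability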
Description: SANGER: Inhibition of human NB5 cell growth in a cell viability assay.

MZ1-PC = assay type: functional, cell-based;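 further: cell viability assay measuring growth inhibition of human MZ1-PC cells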
Description: SANGER: Inhibition of human MZ1-PC cell growth in a cell viability assay.

ES4 = assay type: functional, cell-based;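 further: growth inhibition of human ES4 cells, read out by a cell viability assay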
Description: SANGER: Inhibition of human ES4 cell growth in a cell viability assay.

A388 = assay type: functional, cell-based;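 further: growth inhibition of human A388 cells, read out with a cell viability assay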
Description: SANGER: Inhibition of human A388 cell growth in a cell viability assay.

no-10 = assay type: functional, cell-based;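 further: growth inhibition of no-10 cells, read out with a cell viability assay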
Description: SANGER: Inhibition of human no-10 cell growth in a cell viability assay.

GT3TKB = assay type: functional, cell-based;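 further: growth inhibition of the cell line, read out with a cell viability assay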
Description: SANGER: Inhibition of human GT3TKB cell growth in a cell viability assay.

IA-LM = assay type: functional, cell-based;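 further: cell viability assay measuring growth inhibition of human IA-LM cells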
Description: SANGER: Inhibition of human IA-LM cell growth in a cell viability assay.

DMS-114 = assay type: functional, cell-based
L-363 = assay type: functional, cell-based
Description: SANGER: Inhibition of human L-363 cell growth in a cell viability assay.

SF-126 = assay type: functional, cell-based;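 further: growth inhibition of human SF126 cells, read out with a cell viability assay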
Description: SANGER: Inhibition of human SF126 cell growth in a cell viability assay.

TE-12 = assay type: functional, cell-based;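 further: growth inhibition of TE-12 cells, read out by a cell viability assay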
Description: SANGER: Inhibition of human TE-12 cell growth in a cell viability assay.

D-502MG = assay type: functional, cell-based
Description: SANGER: Inhibition of human D-502MG cell growth in a cell viability assay.

ES6 = assay type: functional, cell-based;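 further: growth inhibition of human ES6 cells, read out with a cell viability assay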
Description: SANGER: Inhibition of human ES6 cell growth in a cell viability assay.

NCI-H720 = assay type: functional, cell-based;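 further: growth inhibition of human NCI-H720 cells determined by a cell viability assay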
Description: SANGER: Inhibition of human NCI-H720 cell growth in a cell viability assay.

A704 = assay type: functional, cell-based
Description: SANGER: Inhibition of human A704 cell growth in a cell viability assay.

HCC1187 = assay type: functional, cell-based
Description: SANGER: Inhibition of human HCC1187 cell growth in a cell viability assay.

GCIY = assay type: functional, cell-based
Description: SANGER: Inhibition of human GCIY cell growth in a cell viability assay.

NCI-H1299 = assay type: functional, cell-based
Description: SANGER: Inhibition of human NCI-H1299 cell growth in a cell viability assay.

DJM-1 = assay type: functional, cell-based
Description: SANGER: Inhibition of human DJM-1 cell growth in a cell viability assay.

SK-MEL-2 = assay type: functional, cell-based
Description: SANGER: Inhibition of human SK-MEL-2 cell growth in a cell viability assay.

HEL = assay type: functional, cell-based
Description: SANGER: Inhibition of human HEL cell growth in a cell viability assay.

MS-1 = assay type: functional, cell-based
Description: SANGER: Inhibition of human MS-1 cell growth in a cell viability assay.

NB69 = assay type: functional, cell-based
Description: SANGER: Inhibition of human NB69 cell growth in a cell viability assay.

BB65-RCC = assay type: functional, cell-based
Description: SANGER: Inhibition of human BB65-RCC cell growth in a cell viability assay.

RXF 393 = assay type: functional, cell-based
Description: SANGER: Inhibition of human RXF393 cell growth in a cell viability assay.

PSN1 = assay type: functional, cell-based
Description: SANGER: Inhibition of human PSN1 cell growth in a cell viability assay.

HOP-62 = assay type: functional, cell-based
Description: SANGER: Inhibition of human HOP-62 cell growth in a cell viability assay.

SK-N-DZ = assay type: functional, cell-based
Description: SANGER: Inhibition of human SK-N-DZ cell growth in a cell viability assay.

LU-139 = assay type: functional, cell-based
Description: SANGER: Inhibition of human LU-139 cell growth in a cell viability assay.

In the case of `O=c1[nH]c2ccccc2n1C1CCN(Cc2ccc(-c3nc4cc5[nH]cnc5cc4nc3-c3ccccc3)cc2)CC1`, the IC50 (IST-MEL1) is reported as > 2.56 µM, the IC50 (ES8) is reported as > 2.56 µM and the IC50 (SNU1) is reported as > 2.56 µM. The IC50 (HCC2218) was > 2.56 µM, the IC50 (NCI-H2126) was > 2.56 µM and the IC50 (ES3) was > 2.56 µM. For the same molecule, the IC50 (NCI-H446) was > 2.56 µM, the IC50 (KGN) was > 2.56 µM and the IC50 (A3-KAW) was > 2.56 µM. For the same molecule, the IC50 (NB13) was > 2.56 µM, the IC50 (NCI-H1770) was > 2.56 µM and the IC50 (Calu-6) was > 2.56 µM. The IC50 (C8166) was > 2.56 µM, the IC50 (RCC10RGB) was > 2.56 µM and the IC50 (EW-24) was > 2.56 µM. For the same molecule, the IC50 (Becker) was > 2.56 µM, the IC50 (DEL) was > 2.56 µM and the IC50 (MHH-PREB-1) was > 2.56 µM. For the same molecule, the IC50 (NCI-H82) was > 2.56 µM, the IC50 (NCI-H747) was > 2.56 µM and the IC50 (LAMA-84) was > 2.56 µM. The IC50 (JVM-3) was > 2.56 µM, the IC50 (HC-1) was > 2.56 µM and the IC50 (SBC-1) was > 2.56 µM. The IC50 (NOS-1) was 1.37 µM, the IC50 (MC116) was > 2.56 µM and the IC50 (MZ7-mel) was > 2.56 µM. The IC50 (TE-11) was > 2.56 µM, the IC50 (MV4-11) was > 2.56 µM and the IC50 (NCI-H23) was > 2.56 µM. For the same molecule, the IC50 (HDLM-2) was > 2.56 µM, the IC50 (EM-2) was > 2.56 µM and the IC50 (MLMA) was > 2.56 µM. The IC50 (RPMI-8866) was > 2.56 µM, the IC50 (TK-10) was > 2.56 µM and the IC50 (KP-N-YS) was > 2.56 µM. For the same molecule, the IC50 (ES7) was 1.35 µM, the IC50 (NB5) was > 2.56 µM and the IC50 (MZ1-PC) was > 2.56 µM. For the same molecule, the IC50 (ES4) was > 2.56 µM, the IC50 (A388) was > 2.56 µM and the IC50 (no-10) was > 2.56 µM. For the same molecule, the IC50 (GT3TKB) was > 2.56 µM, the IC50 (IA-LM) was > 2.56 µM and the IC50 (DMS-114) was > 2.56 µM. The IC50 (L-363) was > 2.56 µM, the IC50 (SF-126) was > 2.56 µM and the IC50 (TE-12) was > 2.56 µM. For the same molecule, the IC50 (D-502MG) was > 2.56 µM, the IC50 (ES6) was > 2.56 µM and the IC50 (NCI-H720) was > 2.56 µM. The IC50 (A704) was > 2.56 µM, the IC50 (HCC1187) was > 2.56 µM and the IC50 (GCIY) was > 2.56 µM. For the same molecule, the IC50 (NCI-H1299) was > 2.56 µM, the IC50 (DJM-1) was > 2.56 µM and the IC50 (SK-MEL-2) was > 2.56 µM. The IC50 (HEL) was > 2.56 µM, the IC50 (MS-1) was > 2.56 µM and the IC50 (NB69) was > 2.56 µM. For the same molecule, the IC50 (BB65-RCC) was > 2.56 µM, the IC50 (RXF 393) was > 2.56 µM and the IC50 (PSN1) was > 2.56 µM. The IC50 (HOP-62) was > 2.56 µM, the IC50 (SK-N-DZ) was > 2.56 µM and the IC50 (LU-139) was > 2.56 µM.

`Fc1cc(-c2cc[nH]/c(=N/c3ccc(-n4cnc(N5CCOCC5)n4)cc3)n2)cc(N2CCOCC2)c1` was tested, and the IC50 (IST-MEL1) was 0.894 µM, the IC50 (ES8) was 0.135 µM and the IC50 (SNU1) was 0.458 µM. For the same molecule, the IC50 (HCC2218) was 1.09 µM, the IC50 (NCI-H2126) was 0.536 µM and the IC50 (ES3) was 1.09 µM. It also gave an IC50 (NCI-H446) of 1.14 µM, an IC50 (KGN) of 0.227 µM and an IC50 (A3-KAW) of 0.294 µM. For the same molecule, the IC50 (NB13) was 4.91 µM, the IC50 (NCI-H1770) was 0.805 µM and the IC50 (Calu-6) was 0.518 µM. For the same molecule, the IC50 (C8166) was 0.445 µM, the IC50 (RCC10RGB) was 0.889 µM and the IC50 (EW-24) was > 5.12 µM. The IC50 (Becker) was 1.06 µM, the IC50 (DEL) was 0.289 µM and the IC50 (MHH-PREB-1) was 0.43 µM. For the same molecule, the IC50 (NCI-H82) was > 5.12 µM, the IC50 (NCI-H747) was 1.05 µM and the IC50 (LAMA-84) was 2.95 µM. The IC50 (JVM-3) was > 5.12 µM, the IC50 (HC-1) was 0.301 µM and the IC50 (SBC-1) was > 5.12 µM. The IC50 (NOS-1) was 0.307 µM, the IC50 (MC116) was 0.411 µM and the IC50 (MZ7-mel) was 2.9 µM. For the same molecule, the IC50 (TE-11) was 2.39 µM, the IC50 (MV4-11) was 0.545 µM and the IC50 (NCI-H23) was > 5.12 µM. For the same molecule, the IC50 (HDLM-2) was 0.721 µM, the IC50 (EM-2) was 1.15 µM and the IC50 (MLMA) was 0.484 µM. For the same molecule, the IC50 (RPMI-8866) was 1.18 µM, the IC50 (TK-10) was 1.19 µM and the IC50 (KP-N-YS) was 0.695 µM. For the same molecule, the IC50 (ES7) was 0.325 µM, the IC50 (NB5) was > 5.12 µM and the IC50 (MZ1-PC) was 0.195 µM. The IC50 (ES4) was 1.39 µM, the IC50 (A388) was 1.94 µM and the IC50 (no-10) was 1.84 µM. For the same molecule, the IC50 (GT3TKB) was 0.302 µM, the IC50 (IA-LM) was 0.371 µM and the IC50 (DMS-114) was > 5.12 µM. The IC50 (L-363) was 0.445 µM, the IC50 (SF-126) was 3.16 µM and the IC50 (TE-12) was 1.21 µM. For the same molecule, the IC50 (D-502MG) was 1.05 µM, the IC50 (ES6) was 0.406 µM and the IC50 (NCI-H720) was > 5.12 µM. It also gave an IC50 (A704) of 0.441 µM, an IC50 (HCC1187) of 0.594 µM and an IC50 (GCIY) of 0.129 µM. The IC50 (NCI-H1299) was 0.366 µM, the IC50 (DJM-1) was > 5.12 µM and the IC50 (SK-MEL-2) was 0.631 µM. For the same molecule, the IC50 (HEL) was 0.548 µM, the IC50 (MS-1) was 2.63 µM and the IC50 (NB69) was 1.43 µM. For the same molecule, the IC50 (BB65-RCC) was 0.924 µM, the IC50 (RXF 393) was 0.0669 µM and the IC50 (PSN1) was > 5.12 µM. It also gave an IC50 (HOP-62) of 0.248 µM, an IC50 (SK-N-DZ) of 1.86 µM and an IC50 (LU-139) of 1.97 µM.
